From publication PMC6791878, “Evaluation of integrin αvβ6 cystine knot PET tracers to detect cancer and idiopathic pulmonary fibrosis” (Nature Communications, 2019)
Values joined by “and” are separate entries in the source; they are usually repeats but may differ in a detail not shown here. Identical values can stand only once. Like-named read-outs stand apart in the source and are kept apart here.

Legend:
human integrin αvβ6 [1] = target: T1, human integrin αvβ6 (Homo sapiens, UniProt P06756+P18564, DEL708-788); assay: Equilibrium binding of yeast-displayed knottins to soluble integrin αvβ6 (two-colour flow cytometry, KD); details: KD, equilibrium binding, knottin expressed on yeast surface vs soluble human integrin αvβ6; ± S.D., three replicates on separate days
T1 construct: purchased R&D Systems

human integrin αvβ6 [2] = target: T1, human integrin αvβ6; assay: Competition binding (IC50) against yeast surface-displayed R01-MG; details: for binding affinity for integrin avb6 in competition binding (IC50), in words: compete with R01-MG displayed on yeast
Sprague Dawley rats = type: in vivo, rat
Experimental: Groups of 5 animals sex^−1 were sacrificed on Study Days 3 (48 h) and 15 for evaluation of clinical pathology and organ toxicity. […] Parameters evaluated for test article effect included survival, clinical observations, body weight, body weight gain, clinical pathology, gross pathology, organ weights, and microscopic pathology.
The purpose of this study was to evaluate the toxicity of [19F]FP-R 1-MG-F2 following a single […]
intra ven ous dose in rats. This study consisted of one test article treatment group of ten male and ten fem ale Spr ague-Dawley rats dosed with [19F]FP-R 1-MG-F2 (note - sm all m olecule […]
[…] An additio na l grou p of ten m ales and ten females received the vehicle, 10% Ethanol in Sterile Saline, and ser ved as the control. All rats received a dose volum e of 5 m L/k g. T he rats were dosed intravenous ly onc e on Stud y Da y 1.
Five m ale and five fem ale rats from each group were bled on Stud y Da y 3 and the rem aining rats were bled on Stud y D ay 15. All an im als were e u than ized a nd necrops ied f ollo wing b loo d collect ion . Param eters evalu ated f or test art icle ef f ect inclu ded sur viva l, clin ica l obser vat ions, bod y weight, bod y weight gain, clinical patholog y, gross pathology, organ weights, and […]
the study. No abnorm al findings were indicated dur ing mortality checks (cagesides) or hands-on […]
be related to treatm ent related.
Under the conditions of this study, there were no treatm ent related findings in Sprague Dawley rats three or fifteen da ys after a single intravenous dose of [19F]FP-R01-MG-F2 at 1.10 mg/kg. […]
intravenous dose in rats. […]
The test article (TA), [19F]FP-R 1-MG-F2, was received from the Sponsor on Aug ust 25, […]
2014, described as a wh ite po wd er . The test article was stored frozen in a g lass vial.
Copies of the Test Artic le Data Sheets are included in Appendix D.
Note: Test article nam e as per the Qualit y Control Record (Appendix D) is listed as FP-GLY-36-Gly-NH2, which represents the chem ical structure. T he test article is referred to b y the comm ercial nam e provided b y the client ([19F]FP-R 1-MG-F2) throughout this report and […]
Name Lot No. Supplier Purit y
The vehicle used in this study was 10% Ethanol in Sterile Saline (0.9% sodium chloride, USP). The vehic le com ponents were purchased commercially b y SoBran and stored at room tem perature in accordance with the m anufacturer instructions. Copies of the Certificate of Anal yses for the lots of 10% Ethanol and Sterile Saline used are included in […]
Name Lot No. Supplier Concentration
Etha no l (20 0 pro of ), USP SHBB0 212 V Sigm a Aldrich; Sa int 99.87% […]
0.9% Sod ium Chlor ide, USP C886374 Baxter; C le ve lan d, 0.888% […]
The 0.22 mg/mL test article solution was pr epar ed b y adding 40 mL of 10% ethanol solution (vehicle control) to 8.8 mg of the test article, mixed gently, and then filtered using a 2µ sterile syringe filter. The pH of the 10% ethanol solution wa s adj us ted us ing HCl and NaO H to achieve a pH of 7.4. The vehicle was passed through a 2µ sterile syringe filter af t er pH […]
On October 2, 2014, 21 male and 21 female Sprague-Dawle y rats were obtained from Harlan, Frederick , MD. The supplier verified that the anim als were free of specific active inf ectious dise ases prior to arriva l at the SoBra n f acilit y. At init iat ion of dosing , the m ale and fem ale rats were 7 week s of age, (Date of Birth: 8/15/14). At ra ndom iza tion th e bod y weights of the rats used on stud y ranged from 199.05 to 218.61 gram s (m ales) […]
Rats were chosen for use in this stud y since the y are considered an acceptable anim al model for the rodent species for acute toxicity tests prior to clinical use.
The animals were housed following the specifications recommended in The Guide for the […]

[3] = Day 3, Group 2 males, p < 0.05, within historical range

T1 sequence (P06756 31-992 limits assumed, stated change not applied): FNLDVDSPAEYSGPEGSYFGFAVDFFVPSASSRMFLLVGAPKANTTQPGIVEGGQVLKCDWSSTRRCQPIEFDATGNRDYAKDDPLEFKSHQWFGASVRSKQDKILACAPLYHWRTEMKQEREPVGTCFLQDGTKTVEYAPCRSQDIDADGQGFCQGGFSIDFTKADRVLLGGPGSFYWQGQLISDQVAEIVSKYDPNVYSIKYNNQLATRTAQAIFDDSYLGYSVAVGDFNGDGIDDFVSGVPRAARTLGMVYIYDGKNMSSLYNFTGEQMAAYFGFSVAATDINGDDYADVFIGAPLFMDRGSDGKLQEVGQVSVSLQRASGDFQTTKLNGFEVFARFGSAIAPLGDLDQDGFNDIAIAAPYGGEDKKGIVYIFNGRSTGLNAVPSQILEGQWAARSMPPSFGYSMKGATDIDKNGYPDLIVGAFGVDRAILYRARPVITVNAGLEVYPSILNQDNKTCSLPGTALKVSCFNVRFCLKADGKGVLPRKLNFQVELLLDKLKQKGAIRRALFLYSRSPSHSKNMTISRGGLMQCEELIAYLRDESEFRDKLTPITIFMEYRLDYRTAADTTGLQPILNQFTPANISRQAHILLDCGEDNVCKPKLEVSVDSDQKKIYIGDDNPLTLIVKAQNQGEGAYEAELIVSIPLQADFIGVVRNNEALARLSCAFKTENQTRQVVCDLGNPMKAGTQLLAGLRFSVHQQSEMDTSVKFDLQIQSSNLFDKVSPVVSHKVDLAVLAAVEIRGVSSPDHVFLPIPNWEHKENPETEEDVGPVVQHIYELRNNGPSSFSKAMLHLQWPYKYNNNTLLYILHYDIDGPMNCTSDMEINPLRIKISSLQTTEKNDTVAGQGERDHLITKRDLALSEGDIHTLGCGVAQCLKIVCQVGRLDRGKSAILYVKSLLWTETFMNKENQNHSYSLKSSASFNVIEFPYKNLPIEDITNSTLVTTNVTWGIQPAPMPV
T1 sequence (P18564 22-707 limits assumed, stated change not applied): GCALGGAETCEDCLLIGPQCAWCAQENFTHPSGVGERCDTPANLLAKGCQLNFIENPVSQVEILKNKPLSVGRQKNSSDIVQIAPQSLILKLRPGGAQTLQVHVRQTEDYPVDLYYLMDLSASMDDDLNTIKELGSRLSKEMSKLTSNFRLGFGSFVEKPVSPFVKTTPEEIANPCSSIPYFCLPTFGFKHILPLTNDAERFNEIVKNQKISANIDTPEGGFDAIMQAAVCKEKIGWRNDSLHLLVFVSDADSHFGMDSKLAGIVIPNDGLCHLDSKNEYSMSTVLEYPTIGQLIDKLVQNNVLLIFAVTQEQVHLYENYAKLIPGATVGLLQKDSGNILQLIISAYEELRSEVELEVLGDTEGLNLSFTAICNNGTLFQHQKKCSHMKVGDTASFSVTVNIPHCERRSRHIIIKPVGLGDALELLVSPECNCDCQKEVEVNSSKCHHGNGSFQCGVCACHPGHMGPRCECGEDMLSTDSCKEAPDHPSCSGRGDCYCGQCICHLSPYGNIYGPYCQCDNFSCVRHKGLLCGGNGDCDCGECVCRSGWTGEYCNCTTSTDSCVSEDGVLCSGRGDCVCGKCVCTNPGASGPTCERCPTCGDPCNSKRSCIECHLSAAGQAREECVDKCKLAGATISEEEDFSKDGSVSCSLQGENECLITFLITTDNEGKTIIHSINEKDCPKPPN

CC[C@H](C)[C@@H]1NC(=O)[C@@H](NC(=O)CN)CSSC[C@@H]2NC(=O)[C@H](C)NC(=O)CNC(=O)[C@@H]3CCCN3C(=O)[C@@H]3CSSC[C@@H](C(=O)NCC(N)=O)NC(=O)[C@H](Cc4ccc(O)cc4)NC(=O)CNC(=O)[C@H](CC(N)=O)NC(=O)CNC(=O)[C@H](CCCNC(=N)N)NC(=O)[C@H](CSSC[C@H](NC(=O)[C@H](CCCNC(=N)N)NC(=O)[C@H](Cc4ccccc4)NC(=O)[C@H](CC(C)C)NC(=O)[C@H](CC(C)C)NC(=O)[C@H]([C@@H](C)O)NC(=O)CNC(=O)[C@H](CC(C)C)NC(=O)[C@H](CC(=O)O)NC(=O)[C@H]([C@@H](C)O)NC(=O)[C@H](CCCNC(=N)N)NC(=O)CNC(=O)[C@H](CC(N)=O)NC(=O)[C@H](CC(C)C)NC1=O)C(=O)N[C@@H](CCCNC(=N)N)C(=O)N[C@@H](CCCNC(=N)N)C(=O)N[C@@H](CC(=O)O)C(=O)N[C@@H](CO)C(=O)N[C@@H](CC(=O)O)C(=O)N3)NC(=O)[C@H]([C@@H](C)CC)NC2=O [R01-MG]
Kd (human integrin αvβ6 [1]): ~1 nM and 1.24 nM | binding affinity for integrin avb6 in competition binding (IC50), in words (human integrin αvβ6 [2]): subnanomolar

CC[C@H](C)[C@@H]1NC(=O)[C@@H](NC(=O)CNC(=O)[C@@H](C)F)CSSC[C@@H]2NC(=O)[C@H](C)NC(=O)CNC(=O)[C@@H]3CCCN3C(=O)[C@@H]3CSSC[C@@H](C(=O)NCC(N)=O)NC(=O)[C@H](Cc4ccc(O)cc4)NC(=O)CNC(=O)[C@H](CC(N)=O)NC(=O)CNC(=O)[C@H](CCCNC(=N)N)NC(=O)[C@H](CSSC[C@H](NC(=O)[C@H](CCCNC(=N)N)NC(=O)[C@H](Cc4ccccc4)NC(=O)[C@H](CC(C)C)NC(=O)[C@H](CC(C)C)NC(=O)[C@H]([C@@H](C)O)NC(=O)CNC(=O)[C@H](CC(C)C)NC(=O)[C@H](CC(=O)O)NC(=O)[C@H]([C@@H](C)O)NC(=O)[C@H](CCCNC(=N)N)NC(=O)CNC(=O)[C@H](CC(N)=O)NC(=O)[C@H](CC(C)C)NC1=O)C(=O)N[C@@H](CCCNC(=N)N)C(=O)N[C@@H](CCCNC(=N)N)C(=O)N[C@@H](CC(=O)O)C(=O)N[C@@H](CO)C(=O)N[C@@H](CC(=O)O)C(=O)N3)NC(=O)[C@H]([C@@H](C)CC)NC2=O [[^19F]FP-R01-MG-F2]
IC50 (human integrin αvβ6 [2]): 0.56 ± 0.46 nM | binding affinity for integrin avb6 in competition binding (IC50), in words (human integrin αvβ6 [2]): subnanomolar | Organ weight, Brain, mean (Sprague Dawley rats; Day 3, Group 2 females): 1.5766 | Organ weight, Eyes with optic nerve, mean (Sprague Dawley rats; Day 3, Group 2 females): 0.2641 | Organ weight, Heart, mean (Sprague Dawley rats; Day 3, Group 2 females): 0.6540 | Organ weight, Kidneys, mean (Sprague Dawley rats; Day 3, Group 2 females): 1.2874 | Organ weight, Liver, mean (Sprague Dawley rats; Day 3, Group 2 females): 5.9521 | Organ weight, Lungs, mean (Sprague Dawley rats; Day 3, Group 2 females): 1.5304 | Organ weight, Ovaries, mean (Sprague Dawley rats; Day 3, Group 2 females): 0.1595 | Organ weight, Spleen, mean (Sprague Dawley rats; Day 3, Group 2 females): 0.4955 | Organ weight, Thyroid (both lobes with parathyroid), mean (Sprague Dawley rats; Day 3, Group 2 females): 0.0479 | Organ weight, Brain, mean (Sprague Dawley rats; Day 3, Group 2 males): 1.7081 | Organ weight, Eyes with optic nerve, mean (Sprague Dawley rats; Day 3, Group 2 males): 0.3216 | Organ weight, Heart, mean (Sprague Dawley rats; Day 3, Group 2 males): 0.9438 | Organ weight, Kidneys, mean (Sprague Dawley rats; Day 3, Group 2 males): 1.7156 | Organ weight, Liver, mean (Sprague Dawley rats; Day 3, Group 2 males): 8.4988 | Organ weight, Lungs, mean (Sprague Dawley rats; Day 3, Group 2 males): 1.6368 | Organ weight, Spleen, mean (Sprague Dawley rats; Day 3, Group 2 males): 0.6601 | Organ weight, Testes, mean (Sprague Dawley rats; Day 3, Group 2 males): 2.9952 | Organ weight, Thyroid (both lobes with parathyroid), mean (Sprague Dawley rats; Day 3, Group 2 males): 0.0299 | alkaline phosphatase (ALP) vs control (Sprague Dawley rats; Day 3, Group 2 males, p < 0.05, not believed biologically meaningful): increase | absolute large unstained cell counts (ALUC) vs control (Sprague Dawley rats; [3]): increased | absolute lymphocyte counts (ALY) vs control (Sprague Dawley rats; [3]): increased | absolute monocyte counts (AMO) vs control (Sprague Dawley rats; [3]): increased | white blood cell counts (WBC) vs control (Sprague Dawley rats; [3]): increased | Organ weight, Brain, mean (Sprague Dawley rats; Day 15, Group 2 females): 1.5915 | Organ weight, Eyes with optic nerve, mean (Sprague Dawley rats; Day 15, Group 2 females): 0.2965 | Organ weight, Heart, mean (Sprague Dawley rats; Day 15, Group 2 females): 0.7068 | Organ weight, Kidneys, mean (Sprague Dawley rats; Day 15, Group 2 females): 1.3894 | Organ weight, Liver, mean (Sprague Dawley rats; Day 15, Group 2 females): 7.3444 | Organ weight, Lungs, mean (Sprague Dawley rats; Day 15, Group 2 females): 1.5063 | Organ weight, Ovaries, mean (Sprague Dawley rats; Day 15, Group 2 females): 0.1569 | Organ weight, Spleen, mean (Sprague Dawley rats; Day 15, Group 2 females): 0.5718 | Organ weight, Thyroid (both lobes with parathyroid), mean (Sprague Dawley rats; Day 15, Group 2 females): 0.0355 | activated partial thromboplastin time vs control (Sprague Dawley rats; Day 15, Group 2 females, p < 0.05, within historical range): decrease | Organ weight, Brain, mean (Sprague Dawley rats; Day 15, Group 2 males): 1.5942 | Organ weight, Eyes with optic nerve, mean (Sprague Dawley rats; Day 15, Group 2 males): 0.3204 | Organ weight, Heart, mean (Sprague Dawley rats; Day 15, Group 2 males): 1.0593 | Organ weight, Kidneys, mean (Sprague Dawley rats; Day 15, Group 2 males): 2.1137 | Organ weight, Liver, mean (Sprague Dawley rats; Day 15, Group 2 males): 11.2236 | Organ weight, Lungs, mean (Sprague Dawley rats; Day 15, Group 2 males): 2.0208 | Organ weight, Spleen, mean (Sprague Dawley rats; Day 15, Group 2 males): 0.6991 | Organ weight, Testes, mean (Sprague Dawley rats; Day 15, Group 2 males): 3.5798 | Organ weight, Thyroid (both lobes with parathyroid), mean (Sprague Dawley rats; Day 15, Group 2 males): 0.0238 | mean corpuscular hemoglobin (MCH) vs control (Sprague Dawley rats; Day 15, Group 2 males, p < 0.05, within historical range): increase | alanine aminotransferase (ALT) vs control (Sprague Dawley rats; Days 3 and 15, Group 2 males, p < 0.05, not believed biologically meaningful): elevated | organ weights and microscopic pathology findings (Sprague Dawley rats; […] single i.v.): No treatm ent-related findings | bodyweights of treated females on Day 3 vs control (Sprague Dawley rats; p < 0.05, judged not treatment related): significant increase
